Test results from US10428044B2, “3-amino-1,5,6,7-tetrahydro-4H-indol-4-ones” (Bayer Pharma Aktiengesellschaft, priority 2014, dated 2019).

Target: (recombinant) catalytic domain of human Bub1 (amino acids 704-1085) (Homo sapiens (Human), UniProt O43683)
Assay: Bub1 kinase assay (TR-FRET)
Format: biochemical
Conditions: ATP 10 μM final, peptide substrate 1 μM final, 60 min at 22° C., read-out: Biological Assay: Bub1 kinase assay median IC50
Outline: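 Readout was TR-FRET between a Eu-labeled antibody complex recognizing phosphoserine and streptavidin-XL665 on the biotinylated peptide, after EDTA stop and 1 h at 22° C. The kinase reaction ran for 60 min at 22° C. Values are means or medians of repeat tests, from 4-parameter fits normalized to enzyme-free and inhibitor-free controls.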

Sequence of (recombinant) catalytic domain of human Bub1 (amino acids 704-1085) (O43683 704-1085): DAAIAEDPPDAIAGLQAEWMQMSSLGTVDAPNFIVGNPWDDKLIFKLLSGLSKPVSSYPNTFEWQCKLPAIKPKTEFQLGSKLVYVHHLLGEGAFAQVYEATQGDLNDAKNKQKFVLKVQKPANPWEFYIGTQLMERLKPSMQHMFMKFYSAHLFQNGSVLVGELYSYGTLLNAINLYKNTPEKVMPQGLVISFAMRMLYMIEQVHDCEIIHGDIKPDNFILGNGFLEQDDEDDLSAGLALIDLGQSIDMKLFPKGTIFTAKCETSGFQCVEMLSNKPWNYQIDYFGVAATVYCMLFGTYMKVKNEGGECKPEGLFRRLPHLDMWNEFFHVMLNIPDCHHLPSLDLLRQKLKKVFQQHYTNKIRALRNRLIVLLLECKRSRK

Row | IC50 [nM] | SMILES
1 | 9.33 | O=C1CC(C(F)(F)F)Cc2[nH]c(-c3ccncc3)c(Nc3ccccc3)c21 (stereo not drawn) [Example 20, 3-(phenylamino)-2-(pyridin-4-yl)-6-(trifluoromethyl)-1,5,6,7-tetrahydro-4H-indol-4-one]
2 | 6.68 | O=C(COCc1ccco1)Nc1cc(-c2[nH]c3c(c2Nc2ccccc2)C(=O)CCC3)ccn1 [Example 352, 2-(furan-2-ylmethoxy)-N-{4-[4-oxo-3-(phenylamino)-4,5,6,7-tetrahydro-1H-indol-2-yl]pyridin-2-yl}acetamide]
3 | 6.49 | CC1(C)CC(=O)c2c([nH]c(-c3ccnc(NC(=O)[C@@H]4C[C@@H]4F)c3)c2Nc2ccccc2)C1 [Example 258]
4 | 11.2 | O=C(Nc1cc(-c2[nH]c3c(c2Nc2ccccc2)C(=O)CCC3)ccn1)c1cnn[nH]1 [Example 281, N-{4-[4-oxo-3-(phenylamino)-4,5,6,7-tetrahydro-1H-indol-2-yl]pyridin-2-yl}-1H-1,2,3-triazole-5-carboxamide]
5 | 47.4 | CSc1cnccc1-c1[nH]c2c(c1Nc1ccccc1)C(=O)CC(C)(C)C2 [Example 201, 6,6-dimethyl-2-[3-(methylsulfanyl)pyridin-4-yl]-3-(phenylamino)-1,5,6,7-tetrahydro-4H-indol-4-one]
6 | 13.9 | O=C(Nc1cc(-c2[nH]c3c(c2Nc2ccccc2)C(=O)CCC3)ccn1)c1ccccc1F [Example 264, 2-fluoro-N-{4-[4-oxo-3-(phenylamino)-4,5,6,7-tetrahydro-1H-indol-2-yl]pyridin-2-yl}benzamide]
7 | 1240 | CCO/N=C1\CC(C)(C)Cc2[nH]c(-c3ccncc3)c(Nc3ccccc3)c21 [Example 491, 4-(ethoxyimino)-6,6-dimethyl-N-phenyl-2-(pyridin-4-yl)-4,5,6,7-tetrahydro-1H-indol-3-amine]
8 | 8.4 | CC1(C)CC(=O)c2c([nH]c(-c3ccncc3)c2Nc2ccccc2CCO)C1 [Example 427, 3-{[2-(2-hydroxyethyl)phenyl]amino}-6,6-dimethyl-2-(pyridin-4-yl)-1,5,6,7-tetrahydro-4H-indol-4-one]
9 | 14.4 | O=C(COCC(F)(F)F)Nc1cc(-c2[nH]c3c(c2Nc2ccccc2)C(=O)CCC3)ccn1 [Example 502, N-{4-[4-oxo-3-(phenylamino)-4,5,6,7-tetrahydro-1H-indol-2-yl]pyridin-2-yl}-2-(2,2,2-trifluoroethoxy)acetamide]
10 | 9.17 | O=C1CC2(CC2)Cc2[nH]c(-c3ccnc(NC(=O)C4CC4)c3)c(Nc3ccccc3)c21 [Example 294, N-{4-[4′-oxo-3′-(phenylamino)-1′,4′,5′,7′-tetrahydrospiro[cyclopropane-1,6′-indol]-2′-yl]pyridin-2-yl}cyclopropanecarboxamide]
11 | 30.8 | O=C(Cc1nccs1)Nc1cc(-c2[nH]c3c(c2Nc2ccccc2)C(=O)CCC3)ccn1 [Example 285, N-{4-[4-oxo-3-(phenylamino)-4,5,6,7-tetrahydro-1H-indol-2-yl]pyridin-2-yl}-2-(1,3-thiazol-2-yl)acetamide]
12 | 9.63 | CC1(C)CC(=O)c2c([nH]c(-c3ccncc3OCCO)c2Nc2ccccc2)C1 [Example 409, 2-[3-(2-hydroxyethoxy)pyridin-4-yl]-6,6-dimethyl-3-(phenylamino)-1,5,6,7-tetrahydro-4H-indol-4-one]
13 | 10.5 | CC1CC(=O)c2c([nH]c(-c3ccncc3)c2Nc2ccccc2)C1 (stereo not drawn) [Example 22, 6-methyl-3-(phenylamino)-2-(pyridin-4-yl)-1,5,6,7-tetrahydro-4H-indol-4-one]
14 | 15.9 | Cc1cc(CC(=O)Nc2cc(-c3[nH]c4c(c3Nc3ccccc3)C(=O)CCC4)ccn2)on1 [Example 289, 2-(3-methyl-1,2-oxazol-5-yl)-N-{4-[4-oxo-3-(phenylamino)-4,5,6,7-tetrahydro-1H-indol-2-yl]pyridin-2-yl}acetamide]

Row | SMILES | IC50 [nM]
15 | CC1(C)CC(=O)c2c([nH]c(-c3ccncc3OC(C)(C)C)c2Nc2ccccc2)C1 [Example 407, 2-(3-tert-butoxypyridin-4-yl)-6,6-dimethyl-3-(phenylamino)-1,5,6,7-tetrahydro-4H-indol-4-one] | 600
